# Results as given in PMC10973839, “CHF6297: a novel potent and selective p38 MAPK inhibitor with robust anti-inflammatory activity and suitable for inhaled pulmonary administration as dry powder” (Frontiers in Pharmacology, 2024).
# Assays:
# [1] = molecular target: T1, human p38β (MAPK11) (Homo sapiens, UniProt Q15759); experiment: AlphaScreen kinase activity assay, human p38β; assay type: biochemical
# T1 construct: GST; purchased Invitrogen
# Method: The inhibitory activity of CHF6297 was determined using an AlphaScreen® (PerkinElmer)-based kinase activity assay as previously described ([Armani et al., 2022]). Kinase reactions consisted of 25 mM 4-(2-hydroxyethyl)-1-piperazine ethanesulfonic acid (HEPES), pH 7.5; 10 mM MgCl2; 100 μM Na3VO4; 2 mM DTT; 0.05 mg/mL Tween^TM 20; 100 pM solution of p38α, p38β, p38δ, or p38γ (Invitrogen); 1% DMSO; and 0.3 μg/mL ATF-2 fusion protein (New England Biolabs). Compounds were incubated under these conditions for 2 h, at 25°C, prior to the initiation of kinase activity by the addition of 250 μM ATP. […] Detection was performed by measuring luminescence following the addition of AlphaScreen donor beads (PerkinElmer, 6765300) and Protein A AlphaScreen acceptor beads (PerkinElmer, 6760137), both at a final concentration of 20 μg/mL. IC50 values were determined from concentration–response curves. […]
# CHF6297 was tested in biochemical enzymatic assays to determine its potency as an inhibitor of human p38α (MAPK14) and of the other human p38 isoforms, p38β (MAPK11), p38γ ([…]), and p38δ ([…]) ([Armani et al., 2022]). Activity in the primary screening assay was determined using AlphaScreen technology, in which a peptide (ATF2) is phosphorylated by the appropriate GST-tagged p38 protein isoform in the presence of CHF6297 at concentrations from semi-logarithmic dilutions. […]
# [2] = molecular target: rat p38α (Rattus norvegicus, UniProt P70618); experiment: AlphaScreen kinase activity assay, rat p38α; assay type: biochemical
# rat p38α, sequence (P70618 whole entry): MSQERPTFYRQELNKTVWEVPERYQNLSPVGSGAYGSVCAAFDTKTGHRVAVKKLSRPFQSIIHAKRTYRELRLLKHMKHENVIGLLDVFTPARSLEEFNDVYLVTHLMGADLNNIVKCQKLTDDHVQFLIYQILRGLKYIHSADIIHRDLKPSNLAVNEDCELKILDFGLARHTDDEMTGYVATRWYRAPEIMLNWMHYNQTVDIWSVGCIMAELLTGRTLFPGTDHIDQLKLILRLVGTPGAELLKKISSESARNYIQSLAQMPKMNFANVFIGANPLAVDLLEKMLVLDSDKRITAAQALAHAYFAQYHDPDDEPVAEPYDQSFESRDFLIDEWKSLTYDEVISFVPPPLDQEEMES
# [3] = molecular target: T2, human p38δ (Homo sapiens, UniProt O15264); experiment: KINOMEscan competition binding assay (DiscoverX), p38δ; conditions: read-out: Kd (mean ± s.d.)
# T2 construct: GST; purchased Invitrogen
# T2 sequence (O15264 1-365): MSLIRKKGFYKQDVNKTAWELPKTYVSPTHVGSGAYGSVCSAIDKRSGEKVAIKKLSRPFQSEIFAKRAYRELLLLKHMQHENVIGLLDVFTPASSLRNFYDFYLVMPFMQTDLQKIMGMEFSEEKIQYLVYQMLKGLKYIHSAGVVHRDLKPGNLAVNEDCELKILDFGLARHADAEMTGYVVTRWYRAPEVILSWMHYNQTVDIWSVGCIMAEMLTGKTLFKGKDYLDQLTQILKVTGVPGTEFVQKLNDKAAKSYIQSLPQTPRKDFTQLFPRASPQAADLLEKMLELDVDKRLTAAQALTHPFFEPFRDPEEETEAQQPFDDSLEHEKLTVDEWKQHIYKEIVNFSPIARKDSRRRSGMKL
# Source text: The KINOMEscan® platform (DiscoverX) was used, which uses a novel and proprietary active site-directed competition binding assay to quantitatively measure the interactions between human p38 isoforms and the target compound.
# [4] = tested on: rat PBMCs; experiment: TNF-α release in LPS-stimulated PBMCs; assay type: cell-based
# Method: Peripheral blood mononuclear cells (PBMCs) were isolated from the blood of healthy human volunteers and Wistar rats (250–350 gr; Charles River, Calco, Italy) using a standard density gradient centrifugation technique. The citrated blood was placed onto Histopaque^TM and centrifuged. The PBMCs were then removed from the density gradient interface and washed in phosphate-buffered saline (PBS). The PBMCs were suspended in RPMI 1640 medium (without serum), aliquoted into a 96-well plate, and incubated at 37°C for 3 h in a humidified incubator. After incubation, the medium was replaced (with a medium containing 1% fetal bovine serum), and the plate was incubated at 37°C, for 1 h, in the presence of a test compound or the appropriate vehicle. LPS (10 ng/mL), or an appropriate vehicle control, was then added to the cells, and the plate was returned to the incubator for 18 h. Cell-free supernatants were removed and assayed for TNF-α levels using MSD plates on the SECTOR Imager 6000 (Meso Scale).
# [5] = tested on: HBSMCs; experiment: CSE-evoked IL-8 release in human bronchial smooth muscle cells; assay type: cell-based
# Method: Cigarette smoke extract (CSE) was generated as reported previously ([Moretto et al., 2012]). Briefly, aqueous CSE was obtained from the combustion of four cigarettes (Marlboro Red, 12 mg tar, 0.9 mg nicotine each) bubbled through 50 mL of the culture medium and subsequently filtered through a 0.2-μm-pore filter (Millipore, Billerica, MA). To ensure reproducibility among different CSE batches, the absorbance [optical density (OD)] measured at 320 nm was used as a measure of the “strength” of the extract. Dilutions were made with culture media to obtain the desired absorbance. The CSE was freshly prepared on the day of the experiment and immediately used after preparation. Human bronchial smooth muscle cells (HBSMCs) were seeded in DMEM with 10% FBS (50 U/mL penicillin, 0.05 mg/mL streptomycin, and 2 mM L-glutamine) in 48-well plates at a density of 10,000 cells/well, grown to ∼80%–90% confluence and incubated overnight in serum-free DMEM before treatments. All the treatments were performed in serum-free DMEM. The cells were pretreated for 30 min with either the vehicle or CHF6297 or losmapimod before stimulation with freshly prepared CSE, TNF-α, (1 ng/mL), or the vehicle for 18 h at 37°C. Human IL-8 was measured in the collected supernatants by use of a paired-antibody quantitative ELISA kit (BioSource International, Camarillo, CA).
# [6] = tested on: LPS-induced neutrophil influx in BALF; experiment: LPS-induced BALF neutrophilia in rats
# Method: For intratracheal (i.t.) administration of LPS or IL-1β, animals were anesthetized with sevoflurane (4% in oxygen), and a laryngoscope was moved forward into the mouth to visualize the trachea and guide the insertion of a fine-tipped PE 100 tube (air-jet delivery system) directly into the trachea and located 1–2 mm above the carina bifurcation. LPS or IL-1β at a concentration of 5 μg/kg and 0.3 μg/kg, respectively, was prepared as a saline solution in a 0.5 mL/kg volume and was blown into the airways during the spontaneous inspiration phase in an air volume of 2 mL.
# Each dose group was allocated to a separate system, and each system was housed in an individual ventilated hood.
# Powder generation: Compound and vehicle blends were compressed into canisters by using a hydraulic press at 50 bar to prepare a stable “tablet” and ensure a uniform pack density. The Wright Dust Feeder (WDF) comprised an electric motor, gears, a scraper blade, air entry, and a final jet and baffle array. The scraper blade scraped off a fine layer of powder, driven by the motor, and the output speed was determined by the configuration of the gears. The scraped powder was then blown out of the dust feed at its base through a jet which focused the powder stream at a baffle, thus reducing aggregation and producing a fine particulate. The WDF was attached to an aerosol conditioning pre-chamber for the delivery of the powder to the inhalation tower. The generation of the powder was monitored throughout the exposure periods either visually or electronically with a dust monitor.
# Inhalation tower: The nose-only inhalation tower was a modular apparatus of anodized aluminum comprising a base unit, two animal sections, and a top section, connected to an earth lead to prevent the formation of any static build-up. During the exposures, the rats were held in restraining tubes, with their snouts protruding into the exposure chamber (see Supplementary Material, Figure 1). The rate of airflow through the WDF was 19 L/min, and that of the exhaust airflow was 20 L/min (vehicle, 0.1 and 1 mg/kg doses) or 40 L/min (0.03 mg/kg doses). The air supply and extract were monitored using in-line flowmeters and recorded manually.
# The inhaled dose was derived using the following equation ([Alexander et al., 2008]): delivered dose (μg/kg) = (Conc. × RMV × D)/BW, where Conc. = concentration of CHF-6297 in the air inhaled (µg/L); RMV = volume of air inhaled in 1 min (L/min) 0.608 × BW (kg) 0.852; D = duration of exposure to the aerosol (min); and BW = body weight (kg).
# Animals were dosed either 1 h (dose–response curve) or 24 h (duration of action) before LPS challenge. Four hours after endotoxin challenge or saline injection, bronchoalveolar lavage fluid (BALF) was collected for cell counting.
# Animals were anesthetized with sevoflurane (4% in oxygen) and euthanized by bleeding from the abdominal aorta. BALF was obtained by gently washing the lungs with three aliquots (4 mL each) of 100 mL of solution A [Hank’s balanced salt solution (HBSS) × 10; 100 mL of 100 mM EDTA; 10 mL of 1 mM HEPES; and 790 mL of distilled water]. […] The resulting BALF was centrifuged at 800 × g for 10 min at 4°C. […] The cell count per animal was calculated from the number of cells for 1 µL of BALF multiplied by the volume used for the resuspension of the cell pellet.
# [7] = n = 3, read-out: IC50 (mean ± s.d.)
# T1 sequence (Q15759 whole entry): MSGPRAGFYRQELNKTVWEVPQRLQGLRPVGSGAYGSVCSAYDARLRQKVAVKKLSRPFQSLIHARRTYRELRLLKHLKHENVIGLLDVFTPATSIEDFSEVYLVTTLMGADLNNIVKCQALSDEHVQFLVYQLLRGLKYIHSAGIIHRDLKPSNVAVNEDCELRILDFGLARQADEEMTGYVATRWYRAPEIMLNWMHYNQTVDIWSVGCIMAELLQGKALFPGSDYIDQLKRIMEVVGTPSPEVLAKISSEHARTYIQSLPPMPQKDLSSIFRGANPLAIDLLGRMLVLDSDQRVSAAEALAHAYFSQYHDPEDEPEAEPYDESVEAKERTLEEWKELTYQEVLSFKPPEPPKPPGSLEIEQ
smiles,measurement,setting,value
C[C@H]1CCCCN1c1nnc2ccc(O[C@@H]3CC[C@H](NC(=O)Nc4cc(C(C)(C)C)nn4-c4cnn(CCN(C)C)c4)c4ccccc43)cn12 [CHF6297],IC50 fold-difference vs. human p38α,[1],1.4
same,IC50,[1]; [7],0.2 ± 0.017 nM
same,IC50 fold-difference vs. human p38α,[2],3.5
same,IC50,[2]; [7],0.5 ± 0.18 nM
same,Kd,[3],> 1000 nM
same,IC50,"[4]; PBMC, LPS 10 ng/mL, 18 h",1.4 nM
same,fold less potent than AZD7624,[4]; TNF-α release,7 fold
same,maximum inhibition of IL-8,[5]; CSE-evoked,100%
same,IC50,"[5]; Homo sapiens, 18 h",0.79 nM
same,neutrophils in BALF,"[6]; 0.1 mg/kg nose-only dry powder, 1 h before LPS, BALF 4 h after challenge",1.18 × 10^6 ± 0.27 × 10^6 neutrophils
same,neutrophils in BALF,"[6]; 0.1 mg/kg nose-only dry powder, 24 h before LPS",1.9 × 10^6 ± 0.3 × 10^6 neutrophils
same,neutrophils in BALF,"[6]; 1 mg/kg nose-only dry powder, 1 h before LPS, BALF 4 h after challenge",0.7 × 10^6 ± 0.12 × 10^6 neutrophils
same,neutrophils in BALF,"[6]; 1 mg/kg nose-only dry powder, 24 h before LPS",1.45 × 10^6 ± 0.19 × 10^6 neutrophils
same,ED50,"[6]; Rattus norvegicus, Neutrophil, read-out: ED50, inhibition of pulmonary neutrophilia",0.064 mg/kg
